{
  "source": "patent US20230183237A1",
  "about": "“COMPETITIVE AND NONCOMPETITIVE INHIBITORS OF THE MUSCARINIC ACETYLCHOLINE RECEPTOR M5” (Vanderbilt University, priority 2020, published 2023)",
  "note": "pIC50: −log10 of the molar value.",
  "data": [
    {"target": "T1, hM5 (Homo sapiens, UniProt P08912)", "T1 construct": "expressed in transfected cells", "T1 sequence (P08912 1-532)": "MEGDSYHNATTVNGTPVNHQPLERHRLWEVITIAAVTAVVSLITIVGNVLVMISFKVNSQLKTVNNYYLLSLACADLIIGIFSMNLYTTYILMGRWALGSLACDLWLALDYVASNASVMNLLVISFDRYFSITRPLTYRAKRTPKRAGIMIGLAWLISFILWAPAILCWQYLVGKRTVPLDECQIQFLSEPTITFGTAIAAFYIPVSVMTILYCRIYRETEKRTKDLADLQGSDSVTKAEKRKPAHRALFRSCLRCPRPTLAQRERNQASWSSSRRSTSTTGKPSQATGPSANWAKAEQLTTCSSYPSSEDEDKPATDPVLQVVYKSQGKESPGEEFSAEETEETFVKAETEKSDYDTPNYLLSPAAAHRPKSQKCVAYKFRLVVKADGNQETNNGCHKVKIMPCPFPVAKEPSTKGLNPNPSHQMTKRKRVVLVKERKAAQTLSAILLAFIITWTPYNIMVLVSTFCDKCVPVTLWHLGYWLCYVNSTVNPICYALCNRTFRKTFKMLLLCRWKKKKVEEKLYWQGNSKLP", "assay": "Calcium mobilization concentration-response (IC50 vs EC80 acetylcholine), CHO hM5", "assay_type": "cell-based", "details": "CELL LINE hM5; calcium mobilization, EC80 acetylcholine addition; read-out: IC50", "in_short": "(§1)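 CHO cells stably expressing hM5, dye-loaded, in HBSS/20 mM HEPES/2.5 mM probenecid, pH 7.4. Compounds were pre-incubated 140 s before an EC80 acetylcholine challenge, with calcium flux read kinetically.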", "values": [
      {"smiles": "Cc1ncc(S(=O)(=O)N2CC=C(c3cn4ncnc4cc3Cl)CC2)n1C", "note": "[Compound 224, 7-chloro-6-(1-((1,2-dimethyl-1H-imidazol-5-yl)sulfonyl)-1,2,3,6-tetrahydropyridin-4-yl)-[1,2,4]triazolo[1,5-a]pyridine]", "pIC50": 7.92},
      {"smiles": "Cc1cc(S(=O)(=O)N2CCC(c3cn4ncnc4cc3C)CC2)c(C)s1", "note": "[Compound 145, 6-(1-((2,5-dimethylthiophen-3-yl)sulfonyl)piperidin-4-yl)-7-methyl-[1,2,4]triazolo[1,5-a]pyridine]", "pIC50": 6.00},
      {"smiles": "Cc1cc2ncnn2cc1C1CCN(S(=O)(=O)c2cnn(C)c2Cl)C(C)C1", "note": "(stereo not drawn) [Compound 361, 6-(1-((5-chloro-1-methyl-1H-pyrazol-4-yl)sulfonyl)-2-methylpiperidin-4-yl)-7-methyl-[1,2,4]triazolo[1,5-a]pyridine]", "pIC50": 5.83},
      {"smiles": "Cc1cc2ncnn2cc1C1CCN(S(=O)(=O)c2cc3c(cc2F)OCC3)CC1", "note": "[Compound 47, 6-(1-((6-fluoro-2,3-dihydrobenzofuran-5-yl)sulfonyl)piperidin-4-yl)-7-methyl-[1,2,4]triazolo[1,5-a]pyridine]", "pIC50": 6.36},
      {"smiles": "O=S(=O)(c1cnn2c1CCC2)N1CCC(c2cn3ncnc3cc2Cl)CC1", "note": "[Compound 293, 7-chloro-6-(1-((5,6-dihydro-4H-pyrrolo[1,2-b]pyrazol-3-yl)sulfonyl)piperidin-4-yl)-[1,2,4]triazolo[1,5-a]pyridine]", "pIC50": 7.92},
      {"smiles": "Cc1ncc(S(=O)(=O)N2CCC(c3nn4ncnc4cc3C)CC2)s1", "note": "[Compound 214, 2-methyl-5-((4-(7-methyl-[1,2,4]triazolo[1,5-b]pyridazin-6-yl)piperidin-1-yl)sulfonyl)thiazole]", "pIC50": "< 5.00"},
      {"smiles": "Cc1c(C2CCN(S(=O)(=O)c3cnc(C)n3C)CC2)cn2ncnc2c1F", "note": "[Compound 304, 6-(1-((1,2-dimethyl-1H-imidazol-5-yl)sulfonyl)piperidin-4-yl)-8-fluoro-7-methyl-[1,2,4]triazolo[1,5-a]pyridine]", "pIC50": 7.37},
      {"smiles": "Cc1sc(C#N)nc1C1=CCN(S(=O)(=O)c2cnn(C)c2C)CC1", "note": "[Compound 204, 4-(1-((1,5-dimethyl-1H-pyrazol-4-yl)sulfonyl)-1,2,3,6-tetrahydropyridin-4-yl)-5-methylthiazole-2-carbonitrile]", "pIC50": "< 5.00"},
      {"smiles": "COc1cc(C2CCN(S(=O)(=O)c3ccc4c(c3)CCO4)CC2)cn2ncnc12", "note": "[Compound 114, 6-(1-((2,3-dihydrobenzofuran-5-yl)sulfonyl)piperidin-4-yl)-8-methoxy-[1,2,4]triazolo[1,5-a]pyridine]", "pIC50": "< 5.00"},
      {"smiles": "Cc1cc(C#N)cnc1C1=CCN(S(=O)(=O)c2ccc3c(c2)CCO3)CC1", "note": "[Compound 210, 1′-((2,3-dihydrobenzofuran-5-yl)sulfonyl)-3-methyl-1′,2′,3′,6′-tetrahydro-[2,4′-bipyridine]-5-carbonitrile]", "pIC50": "< 5.00"},
      {"smiles": "Cc1sc(C(N)=O)nc1C1CCN(S(=O)(=O)c2cnn(C)c2C)CC1", "note": "[Compound 213, 4-(1-((1,5-Dimethyl-1H-pyrazol-4-yl)sulfonyl)piperidin-4-yl)-5-methylthiazole-2-carboxamide]", "pIC50": 5.24},
      {"smiles": "Cc1cc2ncnn2cc1[C@@H]1CCN(S(=O)(=O)c2cnn3c2CCCC3)C[C@H]1O", "note": "(racemic) [Compound 270, (rac)-trans-4-(7-methyl-[1,2,4]triazolo[1,5-a]pyridin-6-yl)-1-((4,5,6,7-tetrahydropyrazolo[1,5-a]pyridin-3-yl)sulfonyl)piperidin-3-ol]", "pIC50": 6.98},
      {"smiles": "O=S(=O)(c1c(Cl)nc2sccn12)N1CCC(c2cn3ncnc3cc2F)CC1", "note": "[Compound 328, 6-chloro-5-((4-(7-fluoro-[1,2,4]triazolo[1,5-a]pyridin-6-yl)piperidin-1-yl)sulfonyl)imidazo[2,1-b]thiazole]", "pIC50": 6.49},
      {"smiles": "Cc1cc2ncnn2cc1C1CCN(S(=O)(=O)c2c(C)nn(C)c2Cl)CC1", "note": "[Compound 138, 6-(1-((5-chloro-1,3-dimethyl-1H-pyrazol-4-yl)sulfonyl)piperidin-4-yl)-7-methyl-[1,2,4]triazolo[1,5-a]pyridine]", "pIC50": 7.59},
      {"smiles": "Cc1sc(C#N)nc1C1CCN(S(=O)(=O)c2ccc3c(c2)CCO3)CC1", "note": "[Compound 226]", "pIC50": 5.85},
      {"smiles": "Cc1cc(C(F)(F)F)ncc1C1CCN(S(=O)(=O)c2cnn(C)c2Cl)CC1", "note": "[Compound 395, 5-(1-((5-chloro-1-methyl-1H-pyrazol-4-yl)sulfonyl)piperidin-4-yl)-4-methyl-2-(triflu0romethyl)pyridine]", "pIC50": 5.89},
      {"smiles": "Cc1cc2ncnn2cc1C1CCN(S(=O)(=O)c2ncn(C)c2Cl)CC1", "note": "[Compound 321, 6-(1-((5-chloro-1-methyl-1H-imidazol-4-yl)sulfonyl)piperidin-4-yl)-7-methyl-[1,2,4]triazolo[1,5-a]pyridine]", "pIC50": 5.96},
      {"smiles": "Cn1ncc(S(=O)(=O)N2CCC(c3cn4ncnc4cc3F)CC2)c1C(F)F", "note": "[Compound 231, 6-(1-((5-(difluoromethyl)-1-methyl-1H-pyrazol-4-yl)sulfonyl)piperidin-4-yl)-7-fluoro-[1,2,4]triazolo[1,5-a]pyridine]", "pIC50": 6.75},
      {"smiles": "Cc1cc2ncnn2cc1C1CCN(S(=O)(=O)c2c(F)cc3c(c2F)C(C)CO3)CC1", "note": "(stereo not drawn) [Compound 116, 6-(1-((4,6-difluoro-3-methyl-2,3-dihydrobenzofuran-5-yl)sulfonyl)piperidin-4-yl)-7-methyl-[1,2,4]triazolo[1,5-a]pyridine]", "pIC50": 6.69},
      {"smiles": "Cc1c(S(=O)(=O)N2CCC(c3cn4ncnc4cc3F)CC2)cnn1C", "note": "[Compound 161, 6-(1-((1,5-dimethyl-1H-pyrazol-4-yl)sulfonyl)piperidin-4-yl)-7-fluoro-[1,2,4]triazolo[1,5-a]pyridine]", "pIC50": 6.90},
      {"smiles": "Cc1c(S(=O)(=O)N2CCC(c3cn4ncnc4cc3OC(F)(F)F)CC2)cnn1C", "note": "[Compound 378, 6-(1-((1,5-dimethyl-1H-pyrazol-4-yl)sulfonyl)piperidin-4-yl)-7-(trifluoromethoxyl)-[1,2,4]triazolo[1,5-a]pyridine]", "pIC50": 5.09},
      {"smiles": "CCn1cc(S(=O)(=O)N2CCC(c3cn4ncnc4cc3C)CC2)c(C2CC2)n1", "note": "[Compound 134, 6-(1-((3-cyclopropyl-1-ethyl-1H-pyrazol-4-yl)sulfonyl)piperidin-4-yl)-7-methyl-[1,2,4]triazolo[1,5-a]pyridine]", "pIC50": "< 5.00"},
      {"smiles": "[2H]C([2H])([2H])n1ncc(S(=O)(=O)N2CCC(c3cn4ncnc4cc3C)CC2)c1C1CC1", "note": "[Compound 131, 6-(1-((5-cyclopropyl-1-(methyl-d3)-1H-pyrazol-4-yl)sulfonyl)piperidin-4-yl)-7-methyl-[1,2,4]triazolo[1,5-a]pyridine]", "pIC50": 7.55}
    ]},
    {"target": "T1, hM5", "assay": "Calcium mobilization concentration-response (IC50 vs EC80 acetylcholine), CHO hM5", "assay_type": "cell-based", "details": "CELL LINE hM5; vs EC80 acetylcholine; read-out: IC50", "in_short": "as §1", "values": [
      {"smiles": "CCc1cc2ncnn2cc1C1CCN(S(=O)(=O)c2cnn3ccccc23)CC1", "note": "[Compound 509, 7-ethyl-6-(1-(pyrazolo[1,5-a]pyridin-3-ylsulfonyl)piperidin-4-yl)-[1,2,4]triazolo[1,5-a]pyridine]", "pIC50": 6.82},
      {"smiles": "Cc1ncc(S(=O)(=O)N2CCC(c3cnc(N(C)C)cc3C)CC2)o1", "note": "[Compound 564, N,N,4-trimethyl-5-(1-((2-methyloxazol-5-yl)sulfonyl)piperidin-4-yl)pyridin-2-amine]", "pIC50": 7.03},
      {"smiles": "Cn1nc(C2CCN(S(=O)(=O)c3cnn(C)c3Cl)CC2)cc1-c1ccco1", "note": "[Compound 591, 1-((5-Chloro-1-methyl-1H-pyrazol-4-yl)sulfonyl)-4-(5-(furan-2-yl)-1-methyl-1H-pyrazol-3-yl)piperidine]", "pIC50": "< 5.00"},
      {"smiles": "Cn1ncc(S(=O)(=O)N2CCC(c3cn4ncnc4cc3C(F)F)CC2)c1CC#N", "note": "[Compound 456, 2-(4-((4-(7-(difluoromethyl)-[1,2,4]triazolo[1,5-a]pyridin-6-yl)piperidin-1-yl)sulfonyl)-1-methyl-1H-pyrazol-5-yl)acetonitrile]", "pIC50": 6.38},
      {"smiles": "O=S(=O)(c1cnc(Cl)s1)N1CCC(c2cn3ncnc3cc2C(F)(F)F)CC1", "note": "[Compound 519, 2-chloro-5-((4-(7-(trifluoromethyl)-[1,2,4]triazolo[1,5-a]pyridin-6-yl)piperidin-1-yl)sulfonyl)thiazole]", "pIC50": 5.80},
      {"smiles": "Cn1cnnc1S(=O)(=O)N1CCC(c2cn3ncnc3cc2C(F)(F)F)CC1", "note": "[Compound 520, 6-(1-((4-methyl-4H-1,2,4-triazol-3-yl)sulfonyl)piperidin-4-yl)-7-(trifluoromethyl)-[1,2,4]triazolo[1,5-a]pyridine]", "pIC50": "< 5.00"},
      {"smiles": "Cn1ncc(S(=O)(=O)N2CCC(c3cc(-c4ccco4)n[nH]3)CC2)c1Cl", "note": "[Compound 587]", "pIC50": 5.84},
      {"smiles": "Cc1c(C2CCN(S(=O)(=O)c3cnc4sccn34)CC2)cn2ncnc2c1F", "note": "[Compound 533, 5-((4-(8-fluoro-7-methyl-[1,2,4]triazolo[1,5-a]pyridin-6-yl)piperidin-1-yl)sulfonyl)imidazo[2,1-b]thiazole]", "pIC50": 8.05},
      {"smiles": "Cc1cc(S(=O)(=O)N2CCC(c3cn4ncnc4cc3CF)CC2)sn1", "note": "[Compound 605, 5-((4-(7-(Fluoromethyl)-[1,2,4]triazolo[1,5-a]pyridin-6-yl)piperidin-1-yl)sulfonyl)-3-methylisothiazole]", "pIC50": 7.59},
      {"smiles": "Cc1cc2ncnn2nc1C1CCN(S(=O)(=O)c2cnn3ccccc23)CC1", "note": "[Compound 546, 7-methyl-6-(1-(pyrazolo[1,5-a]pyridin-3-ylsulfonyl)piperidin-4-yl)-[1,2,4]triazolo[1,5-b]pyridazine]", "pIC50": 6.27}
    ]}
  ]
}
